Data: patent US20260224486A1, “DIANHYDROHEXITOL BASED IONIZABLE LIPIDS FOR NUCLEIC ACID DELIVERY” (SANOFI PASTEUR INC., priority 2023, published 2026)

Tests used:
[1] = system: A/Tasmania/503/2020 (H3N2) virus; assay: Influenza titer: HAI assay on sera of mice immunized IM with Modified Tasmania H3 mRNA-lipid nanoparticles; conditions: Balb/c mice, 0.4 ug per mouse Modified Tasmania H3 mRNA-LNP IM on day 0 and day 21
[2] = Lipid nanoparticle size and polydispersity index by dynamic light scattering (Malvern Zetasizer); type: physicochemical; conditions: hEPO mRNA LNP, Process A, Cationic Lipid:DMG-PEG2000:Cholesterol:DOPE 40:1.5:28.5:30 mol %, N/P 4
Description: The lipid nanoparticles in the examples of the present invention were formulated using Process A of WO 2018/089801 (see, e.g., Example 1 and FIG. 1 of WO 2018/089801). Process A (“A”) relates to a conventional method of encapsulating mRNA by mixing mRNA with a mixture of lipids, without first pre-forming the lipids into lipid nanoparticles. In an exemplary process, an ethanolic solution of a mixture of lipids (cationic lipid, phosphatidylethanolamine, cholesterol, and polyethylene glycol-lipid) at a fixed lipid to mRNA ratio were combined with an aqueous buffered solution of target mRNA at an acidic pH under controlled conditions to yield a suspension of uniform LNPs. After ultrafiltration and diafiltration into a suitable diluent system, the resulting nanoparticle suspensions were diluted to final concentration, filtered, and stored frozen at −80° C. until use.
(§1) Lipid nanoparticle formulations of Table 1 were prepared by Process A. All of the lipid nanoparticle formulations comprised hEPO mRNA and the different lipids (Cationic Lipid: DMG-PEG2000: Cholesterol: DOPE) in mol % ratios of 40:1.5:28.5:30 (Cationic Lipid: DMG-PEG2000: Cholesterol: DOPE).
The Polydispersity Index (Pdl) of lipid nanoparticles can be determined by diluting the formulation in 10% trehalose at about 0.1 mg/ml mRNA concentration and then measuring the size on Malvern zetasizer. The lipid nanoparticle size can be obtained with Malvern Zetasizer Nano-ZS.
Dynamic light scattering (DLS) measurements were performed using a Malvern Instruments Zetasizer with a backscattering detector angle of 173° and a 4-mW, 633-nm He—Ne laser (Worcestershire, UK). The samples were analyzed by diluting in 10% Trehalose and measuring the size and Poly dispersity Index (PDI) in an optical grade polystyrene cuvette.

BALB/cJ mice = assay: Delivery of hEPO mRNA by intramuscular administration of LNPs; serum hEPO by ELISA; type: in vivo, Mouse; conditions: for hEPO 24 Hr (ng/ml) Mean: mouse serum 24 hours post single IM injection of 0.1 μg hEPO mRNA LNP
Outline: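 Female BALB/cJ mice, 6-8 weeks, given a single IM injection of 0.1 μg hEPO mRNA LNPs into right gastrocnemius under light isoflurane. Serum taken at 6 and 24 h post dose and terminally by cardiac puncture; hEPO measured by ELISA ("shaker" protocol), samples diluted 1:40 to 1:100.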

[3] = mRNA encapsulation efficiency of lipid nanoparticles (RiboGreen assay); type: physicochemical; conditions: hEPO mRNA LNP, Process A, Cationic Lipid:DMG-PEG2000:Cholesterol:DOPE 40:1.5:28.5:30 mol %, N/P 4
Description: In embodiments, the lipid nanoparticle encapsulates a nucleic acid, optionally an mRNA encoding a peptide or protein. In embodiments, the lipid nanoparticle encapsulates an mRNA encoding a peptide or protein, optionally for use in a vaccine. In embodiments, the peptide is an antigen. As used herein, the phrase “encapsulation percentage” refers to the fraction of therapeutic agent (e.g. mRNA) that is effectively encapsulated within a liposomal-based vehicle (e.g. a lipid nanoparticle) relative to the initial fraction of therapeutic agent present in the lipid phase. In embodiments, the lipid nanoparticles have an encapsulation percentage for mRNA of at least 50%. In embodiments, the lipid nanoparticles have an encapsulation percentage for mRNA of at least 55%. In embodiments, the lipid nanoparticles have an encapsulation percentage for mRNA of at least 60%. In embodiments, the lipid nanoparticles have an encapsulation percentage for mRNA of at least 65%. In embodiments, the lipid nanoparticles have an encapsulation percentage for mRNA of at least 70%. In embodiments, the lipid nanoparticles have an encapsulation percentage for mRNA of at least 75%. In embodiments, the lipid nanoparticles have an encapsulation percentage for mRNA of at least 80%. In embodiments, the lipid nanoparticles have an encapsulation percentage for mRNA of at least 85%. In embodiments, the lipid nanoparticles have an encapsulation percentage for mRNA of at least 90%. In embodiments, the lipid nanoparticles have an encapsulation percentage for mRNA of at least 95%. In embodiments, the encapsulation percentage is calculated by performing the Ribogreen assay (Invitrogen) with and without the presence of 0.1% Triton-X 100.
as §1
The RiboGreen Assay is a fluorescence-based method for the determination of mRNA concentration (Total and Free) and % encapsulation using Quant-iT™ RiboGreen® RNA reagent in mRNA containing lipid nanoparticles.
• To each of the standards (Blank, mRNA-1, mRNA-2. mRNA-3, mRNA-4, mRNA-5) and Samples (free mRNA and total mRNA), add 1.0 mL of 200-fold Ribogreen Reagent Solution and gently mix by inversion. This is a 2× Dilution. • Add 200 μL of each standard and sample in triplicate using the reverse pipetting technique in a 96-well Costar Black with Clear Background Plate. Ensure no bubbles are present in the plate before the fluorescence reading. • Read the fluorescence signal using the below instrument parameters: • Read Type: Fluorescence, Bottom Read • Excitation: 485 nm; Cut-off: 515 nm; Emission: 530 nm • Plate Type: 96-well Costar Black with Clear Background
The average fluorescence from each calibration standard is plotted against the concentration to generate a linear calibration curve using the MS Excel software. The coefficient of determination (R^2) of calibration curve must be R^2>0.99.
[formula] • Where, • Y=average fluorescence value • m: slope • x: concentration (pg/mL) • c: y-intercept • Using the linear equation, calculate the concentration of free and total mRNA concentration in the test sample by replacing the y value in the equation with the average fluorescence value of each respective sample • Once the concentration is determined, the actual concentration in the sample can be back-calculated by multiplying the concentration in the test sample with the dilution factor (DF) as follows:
[formula] [formula] • Concentration of encapsulated mRNA can be determined by subtracting the concentration of free mRNA from the total mRNA. • % Encapsulation can then be calculated by taking the ratio of encapsulated mRNA over total mRNA and multiplying the result with 100.

[4] = Table 2, isosorbide-derived lipids, mouse serum 6 hours post single IM injection of 0.1 μg hEPO mRNA LNP
[5] = Table 2, isosorbide-derived lipids
[6] = Table 4, further lipids, mouse serum 6 hours post IM injection of hEPO mRNA LNP as in example 3

CCCCCCCCCCC(O)CN(CCCC(=O)O[C@H]1CO[C@H]2[C@@H]1OC[C@H]2OC(=O)CCCN(CC(O)CCCCCCCCCC)CC(O)CCCCCCCCCC)CC(O)CCCCCCCCCC (stereo in doubt) [Compound 3]
HAI GMT [1]: 320 | Polydispersity Index (PDI) [2]: 0.11 | Size (nm) [2]: 95 nm | hEPO 6 Hr (ng/mL) Mean (BALB/cJ mice; Table 3, isomannide-derived lipids, mouse serum 6 hours post single IM injection of 0.1 μg hEPO mRNA LNP): 37.4 ng/mL | hEPO 24 Hr (ng/ml) Mean (BALB/cJ mice; Table 3, isomannide-derived lipids): 18.9 ng/mL | Encapsulation efficiency (EE) % [3]: 86%

CCCCCCCCCCC(O)CN(CCCC(=O)O[C@H]1CO[C@H]2[C@@H]1OC[C@H]2OC(=O)CCCN(CC(O)CCCCCCCCCC)CC(O)CCCCCCCCCC)CC(O)CCCCCCCCCC (stereo partly shown) [Compound 24]
HAI GMT [1]: 190 | Polydispersity Index (PDI) [2]: 0.11 | Size (nm) [2]: 88 nm | hEPO 6 Hr (ng/ml) Mean (BALB/cJ mice; [4]): 30.2 ng/mL | hEPO 24 Hr (ng/ml) Mean (BALB/cJ mice; [5]): 19.4 ng/mL | Encapsulation efficiency (EE) % [3]: 83%

CCCCCCCCCCC(O)CN(CCCOC(=O)O[C@H]1CO[C@H]2[C@@H]1OC[C@H]2OC(=O)OCCCN(CC(O)CCCCCCCCCC)CC(O)CCCCCCCCCC)CC(O)CCCCCCCCCC (stereo partly shown) [Compound 40]
Polydispersity Index (PDI) [2]: 0.11 | Size (nm) [2]: 84 nm | hEPO 6 Hr (ng/ml) Mean (BALB/cJ mice; [4]): 11.9 ng/mL | hEPO 24 Hr (ng/ml) Mean (BALB/cJ mice; [5]): 7 ng/mL | Encapsulation efficiency (EE) % [3]: 66%

CCCCCCCCC(O)CN(CCCC(=O)N[C@H]1CO[C@H]2[C@@H]1OC[C@@H]2NC(=O)CCCN(CC(O)CCCCCCCC)CC(O)CCCCCCCC)CC(O)CCCCCCCC (stereo partly shown) [Compound 51]
Polydispersity Index (PDI) [2]: 0.12 | Size (nm) [2]: 71 nm | hEPO 6 Hr (ng/ml) Mean (BALB/cJ mice; [6]): 47.6 ng/mL | Encapsulation efficiency (EE) % [3]: 81%

CCCCCCCCCCC(O)CN(CCCC(=O)N[C@H]1CO[C@H]2[C@@H]1OC[C@@H]2NC(=O)CCCN(CC(O)CCCCCCCCCC)CC(O)CCCCCCCCCC)CC(O)CCCCCCCCCC (stereo partly shown) [Compound 52]
Polydispersity Index (PDI) [2]: 0.14 | Size (nm) [2]: 74 nm | hEPO 6 Hr (ng/ml) Mean (BALB/cJ mice; [6]): 72.7 ng/mL | Encapsulation efficiency (EE) % [3]: 95%

CCCCCCCCCCCCC(O)CN(CCCOC(=O)N[C@H]1CO[C@H]2[C@@H]1OC[C@@H]2NC(=O)OCCCN(CC(O)CCCCCCCCCCCC)CC(O)CCCCCCCCCCCC)CC(O)CCCCCCCCCCCC (stereo partly shown) [Compound 53]
Polydispersity Index (PDI) [2]: 0.2 | Size (nm) [2]: 97 nm | hEPO 6 Hr (ng/ml) Mean (BALB/cJ mice; [6]): 72.0 ng/mL | Encapsulation efficiency (EE) % [3]: 96%

CCCCCCCCCCC(O)CN(CCCSC(=O)N[C@H]1CO[C@H]2[C@@H]1OC[C@@H]2NC(=O)SCCCN(CC(O)CCCCCCCCCC)CC(O)CCCCCCCCCC)CC(O)CCCCCCCCCC (stereo partly shown) [Compound 54]
Polydispersity Index (PDI) [2]: 1.6 | Size (nm) [2]: 79 nm | hEPO 6 Hr (ng/ml) Mean (BALB/cJ mice; [6]): 12.0 ng/mL | Encapsulation efficiency (EE) % [3]: 87%

CCCCCCCCCCCCC(O)CN(CCCC(=O)N[C@H]1CO[C@H]2[C@@H]1OC[C@@H]2NC(=O)CCCN(CC(O)CCCCCCCCCCCC)CC(O)CCCCCCCCCCCC)CC(O)CCCCCCCCCCCC (stereo partly shown) [Compound 55]
Polydispersity Index (PDI) [2]: 0.15 | Size (nm) [2]: 101 nm | hEPO 6 Hr (ng/ml) Mean (BALB/cJ mice; [6]): 30.9 ng/mL | Encapsulation efficiency (EE) % [3]: 99%
